Experimental data: patent US20250179059A1 (The Regents of the University of California, priority 2021, published 2025)
Like-named read-outs stand apart in the source and are kept apart here.

How the values were obtained:
[1] = target: T1, human BRD4 bromodomain II (Homo sapiens, UniProt O60885); assay: Bromodomain binding assay (AlphaScreen), BRD4 BDII
T1 construct: human BRD4 bromodomain II [based on Genbank NM_058243, residues 349-460]; host or cells: E. coli
In short: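 Read-out is AlphaScreen signal (ex 680 nm, em 520-620 nm) from streptavidin donor beads on a biotinylated acetylated histone H4 (aa 1-21) peptide and nickel acceptor beads on the His6-tagged bromodomain. IC50 values come from curve fits of percentage peptide binding against compound concentration.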

[2] = test system: human SKM-1 acute myeloid leukemia cells; assay: SKM-1 antiproliferation cell-based assay (ATPlite)
In short: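 Log-phase cells in RPMI 1640/15% FBS were seeded at 34722 cells/mL and exposed for 4 days to nine-concentration DMSO serial dilutions in triplicate. Viability was read as ATP luminescence (ATPlite 1step), and IC50 values came from variable-slope non-linear regression.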

[3] = AlphaScreen assay, Table C2, read-out: BRD4 BDII IC50
[4] = Homo sapiens, SKM-1, 96 h, SKM-1 antiproliferation assay, 4 days, Table C2
[5] = BRD4 BDII AlphaScreen assay, read-out: BRD4 BD2 IC50
[6] = Homo sapiens, SKM-1, SKM-1 antiproliferation assay

CC(=O)Nc1ccc(-c2cccc(-c3cc(OCCN)nc(N4CCNCC4)c3)c2O)cc1F [Example 302, N-(3′-(2-(2-aminoethoxy)-6-(piperazin-l-yl)pyridin-4-yl)-3-fluoro-2′-hydroxy-[1,1′-biphenyl]-4-yl)acetamide]
IC50 [1, 3]: 10 to 100 nM | GI50 [2, 4]: 300 to 3000 nM

COc1ncc(-c2cc(F)cc(-c3ccc(-n4ccn(C)c4=O)c(Cl)c3)c2O)cc1N1CC(C)(O)C1 [Example 834, 1-(3-chloro-5′-fluoro-2′-hydroxy-3′-(5-(3-hydroxy-3-methylazetidin-1-yl)-6-methoxypyridin-3-yl)-[1,1′-biphenyl]-4-yl)-3-methyl-1H-imidazol-2(3H)-one]
IC50 [1, 3]: 1 to 10 nM | GI50 [2, 4]: 0.3 to 30 nM

Cn1ccn(-c2c(Cl)cc(-c3cc(F)cc(-c4cccc(N5CCN(C(C)(C)C)CC5)c4)c3O)cc2OC2CC2)c1=O [Example 930, 1-(3″-(4-(tert-butyl)piperazin-1-yl)-3-chloro-5-cyclopropoxy-5′-fluoro-2′-hydroxy-[1,1′:3′,1″-terphenyl]-4-yl)-3-methyl-1H-imidazol-2(3H)-one]
IC50 [1, 5]: > 100 nM | GI50 [2, 6]: 300 to 3000 nM

Cn1ccn(-c2ccc(-c3cc(F)cc(-c4cccc(N5CCCN(C(C)(C)C)CC5)c4)c3O)cc2Cl)c1=O [Example 851, 1-(3″-(4-(tert-Butyl)-1,4-diazepan-1-yl)-3-chloro-5′-fluoro-2′-hydroxy-[1,1′:3′,1″-terphenyl]-4-yl)-3-methyl-1H-imidazol-2(3H)-one]
IC50 [1, 5]: 1 to 10 nM | GI50 [2, 6]: 30 to 300 nM

Cn1ccn(-c2ccc(-c3cc(F)cc(-c4ccnc(N5CCN6CCCC6C5)c4)c3O)cc2Cl)c1=O (stereo not shown) [Example 625, 1-(3-chloro-5′-fluoro-3′-(2-(hexahydropyrrolo[1,2-a]pyrazin-2(1H)-yl)pyridin-4-yl)-2′-hydroxy-[1,1′-biphenyl]-4-yl)-3-methyl-1H-imrdazol-2(3H)-one]
IC50 [1, 3]: 0.01 to 1 nM | GI50 [2, 4]: 0.3 to 30 nM

Cc1cc(-c2ccc(-n3ccn(C)c3=O)c(Cl)c2)c(O)c(-c2cc(N3CCN(C(C)(C)C)CC3)n3ccnc3c2)n1 [Example 1002, 1-(4-(2-(5-(4-(tert-butyl)piperazin-1-yl)imidazo[1,2-a]pyridin-7-yl)-3-hydroxy-6-methylpyridin-4-yl)-2-chlorophenyl)-3-methyl-1H-imidazol-2(3H)-one]
IC50 [1, 5]: 1 to 10 nM | GI50 [2, 6]: 0.3 to 30 nM

[2H]C([2H])([2H])n1ccn(-c2ccc(-c3cc(F)cc(-c4ccnc(N5CCNCC5)c4)c3O)cc2Cl)c1=O [Example 409, 1-(3-chloro-5′-fluoro-2′-hydroxy-3′-(2-(piperazin-1-yl)pyridin-4-yl)-[1,1′-biphenyl]-4-yl)-3-(trideuteromethyl)-1H-imidazol-2(3H)-one]
IC50 [1, 3]: 1 to 10 nM | GI50 [2, 4]: 0.3 to 30 nM

Cc1ncc(-c2cc(F)cc(-c3ccc(-n4ccn(C)c4=O)c(Cl)c3)c2O)cc1N1CCN(C2CCC2)CC1 [Example 883]
IC50 [1, 5]: 1 to 10 nM | GI50 [2, 6]: 0.3 to 30 nM

Cn1ccn(-c2ccc(-c3cc(F)cc(-c4ccnc(N5CCN[C@H](CC#N)C5)c4)c3O)cc2Cl)c1=O [Example 698, (R)-2-(4-(4-(3′-chloro-5-fluoro-2-hydroxy-4′-(3-methyl-2-oxo-2,3-dihydro-1H-imidazol-1-yl)-[1,1′-biphenyl]-3-yl)pyridin-2-yl)piperazin-2-yl)acetonitrile]
IC50 [1, 3]: 0.01 to 1 nM | GI50 [2, 4]: 0.3 to 30 nM

CN1CCN(c2ccc(-c3cccc(-c4cncc(N5CC6(CNC6)C5)c4)c3O)cc2F)C1=O [Example 334, 1-(3′-(5-(2,6-diazaspiro[3.3]heptan-2-yl)pyridin-3-yl)-3-fluoro-2′-hydroxy-[1,1′-biphenyl]-4-yl)-3-methylimidazolidin-2-one]
IC50 [1, 3]: 10 to 100 nM | GI50 [2, 4]: 300 to 3000 nM

CO[C@@H]1COC(=O)N1c1ccc(-c2cc(F)cc(-c3ccnc(N4CCNCC4)c3)c2O)cc1Cl [Example 507, (R)-3-(3-chloro-5′-fluoro-2′-hydroxy-3′-(2-(piperazin-1-yl)pyridin-4-yl)-[1,1′-biphenyl]-4-yl)-4-methoxyoxazolidin-2-one]
IC50 [1, 3]: 10 to 100 nM | GI50 [2, 4]: 300 to 3000 nM

CN[C@H]1CCN(c2cncc(-c3cc(F)cc(-c4ccc(-n5ccn(C)c5=O)c(Cl)c4)c3O)c2)C1 [Example 476, (S)-1-(3-chloro-5′-fluoro-2′-hydroxy-3′-(5-(3-(methylamino)pyrrolidin-1-yl)pyridin-3-yl)-[1,1′-biphenyl]-4-yl)-3-methyl-1H-imidazol-2(3H)-one]
IC50 [1, 3]: 0.01 to 1 nM | GI50 [2, 4]: 0.3 to 30 nM

CN1CCN(c2ccc(-c3cc(OC(F)(F)F)cc(-c4ccnc(N5CCNCC5)c4)c3O)cc2Cl)C1=O [Example 309, l-(3-chloro-2′-hydroxy-3′-(2-(piperazin-l-yl)pyridin-4-yl)-5′-(trifluoromethoxy)-[1,1′-biphenyl]-4-yl)-3-methylimidazolidin-2-one]
IC50 [1, 3]: 10 to 100 nM | GI50 [2, 4]: ≥ 3000 nM

Cc1cc(-c2cc(F)cc(-c3ccnc(N4CCNCC4)c3)c2O)cc(Cl)c1N1CCN(C)C1=O [Example 385, 1-(3-chloro-5′-fluoro-2′-hydroxy-5-methyl-3′-(2-(piperazin-1-yl)pyridin-4-yl)-[1,1′-biphenyl]-4-yl)-3-methylimidazolidin-2-one]
IC50 [1, 3]: > 100 nM | GI50 [2, 4]: 300 to 3000 nM

Cn1ccn(-c2ccc(-c3cc(F)cc(-c4cc(N5CCC(N)CC5)c5cn[nH]c5c4)c3O)cc2Cl)c1=O [Example 581]
IC50 [1, 3]: 0.01 to 1 nM | GI50 [2, 4]: 30 to 300 nM

O=C1CCCN1c1ccc(-c2cc(F)cc(-c3ccnc(N4CCNCC4)c3)c2O)cc1Cl [Example 217, 1-(3-chloro-5′-fluoro-2′-hydroxy-3′-(2-(piperazin-1-yl)pyridin-4-yl)-[1,1′-biphenyl]-4-yl)pyrrolidin-2-one]
IC50 [1, 3]: 1 to 10 nM | GI50 [2, 4]: 300 to 3000 nM

Cn1ccn(-c2ccc(-c3cc(F)cc(-c4ccnc(N5CCC[C@H](O)C5)c4)c3O)cc2Cl)c1=O [Example 628, (S)-1-(3-chloro-5′-fluoro-2′-hydroxy-3′-(2-(3-hydroxypiperidin-1-yl)pyridin-4-yl)-[1,1′-biphenyl]-4-yl)-3-methyl-1H-imidazol-2(3H)-one]
IC50 [1, 3]: 0.01 to 1 nM | GI50 [2, 4]: 30 to 300 nM

Cn1ccn(-c2ccc(-c3cc(F)cc(-c4cccc(-c5ccc(CO)cc5)c4)c3O)cc2Cl)c1=O [Example 858]
IC50 [1, 5]: 10 to 100 nM | GI50 [2, 6]: 300 to 3000 nM

Cn1ccn(-c2ccc(-c3cc(F)cc(-c4cc(N5CCNC(C)(C)C5)c5cn[nH]c5c4)c3O)cc2Cl)c1=O [Example 589, 1-(3-chloro-3′-(4-(3,3-dimethylpiperazin-1-yl)-1H-indazol-6-yl)-5′-fluoro-2′-hydroxy-[1,1′-biphenyl]-4-yl)-3-methyl-1H-imidazol-2(3H)-one]
IC50 [1, 3]: 1 to 10 nM | GI50 [2, 4]: 0.3 to 30 nM

C[C@@H]1CN(c2cc(-c3cc(F)cc(-c4ccc(-n5ccn(C)c5=O)c(Cl)c4)c3O)cc3c2nnn3C)CCN1 [Example 605, (R)-1-(3-chloro-5′-fluoro-2′-hydroxy-3′-(1-methyl-4-(3-methylpiperazin-1-yl)-1H-benzo[d][1,2,3]triazol-6-yl)-[1,1′-biphenyl]-4-yl)-3-methyl-1H-imidazol-2(3H)-one]
IC50 [1, 3]: 0.01 to 1 nM | GI50 [2, 4]: 0.3 to 30 nM

Cc1cc(-c2ccc(-n3ccn(C)c3=O)c(Cl)c2)c(O)c(-c2cc(N3CCN(C(C)(C)C)CC3)c3nccn3c2)n1 [Example 989, 1-(4-(2-(8-(4-(tert-butyl)piperazin-1-yl)imidazo[1,2-a]pyridin-6-yl)-3-hydroxy-6-methylpyridin-4-yl)-2-chlorophenyl)-3-methyl-1H-imidazol-2(3H)-one]
IC50 [1, 5]: 1 to 10 nM | GI50 ([2]; SKM-1 antiproliferation assay): 0.3 to 30 nM

CN[C@H]1CCN(c2cc(-c3cc(F)cc(-c4ccc(-n5ccn(C)c5=O)c(Cl)c4)c3O)cc(NC(C)=O)n2)C1 [Example 519, (S)-N-(4-(3′-chloro-5-fluoro-2-hydroxy-4′-(3-methyl-2-oxo-2,3-dihydro-1H-imidazol-1-yl)-[1,1′-biphenyl]-3-yl)-6-(3-(methylamino)pyrrolidin-1-yl)pyridin-2-yl)acetamide]
IC50 [1, 3]: 1 to 10 nM | GI50 [2, 4]: 0.3 to 30 nM

COC[C@@H]1CN(c2cc(-c3cc(F)cc(-c4ccc(-n5ccn(C)c5=O)c(Cl)c4)c3O)ccn2)CCN1 [Example 666, (S)-1-(3-chloro-5′-fluoro-2′-hydroxy-3′-(2-(3-(methoxymethyl)piperazin-1-yl)pyridin-4-yl)-[1,1′-biphenyl]-4-yl)-3-methyl-1H-imidazol-2(3H)-one]
IC50 [1, 3]: 0.01 to 1 nM | GI50 [2, 4]: 0.3 to 30 nM

Cn1ccn(-c2ccc(-c3cc(F)cc(-c4ccnc(N5CCN6C(=O)OCCC6C5)c4)c3O)cc2Cl)c1=O (stereo not shown) [Example 675, 2-(4-(3′-chloro-5-fluoro-2-hydroxy-4′-(3-methyl-2-oxo-2,3-dihydro-1H-imidazol-1-yl)-[1,1′-biphenyl]-3-yl)pyridin-2-yl)hexahydropyrazino[1,2-c][1,3]oxazin-6(2H)-one]
IC50 [1, 3]: 0.01 to 1 nM | GI50 [2, 4]: 30 to 300 nM

CC(C)COc1cc(-c2cc(F)cc(-c3cccc(N4CCN(C(C)(C)C)CC4)c3)c2O)cc(Cl)c1-n1ccn(C)c1=O [Example 924, 1-(3″-(4-(tert-Butyl)piperazin-1-yl)-3-chloro-5′-fluoro-2′-hydroxy-5-isobutoxy-[1,1′:3′,1″-terphenyl]-4-yl)-3-methyl-1H-imidazol-2(3H)-one]
IC50 [1, 5]: 10 to 100 nM | GI50 [2, 6]: 30 to 300 nM

Cn1ccn(-c2ccc(-c3cc(F)cc(-c4cncc(N5CC[C@@](C)(N)C5)c4)c3O)cc2Cl)c1=O [Example 742, (R)-1-(3′-(5-(3-amino-3-methylpyrrolidin-1-yl)pyridin-3-yl)-3-chloro-5′-fluoro-2′-hydroxy-[1,1′-biphenyl]-4-yl)-3-methyl-1H-imidazol-2(3H)-one]
IC50 [1, 3]: 0.01 to 1 nM | GI50 [2, 4]: 0.3 to 30 nM
